For 14 molecules, MIC results are on record in ChEMBL document CHEMBL3232809, “Synthesis, antibiotic activity and structure-activity relationship study of some 3-enaminetetramic acids” (2014).

≈ marks a conversion by molar mass, not a printed value.

Holding throughout (format): functional
Experiment [1] deals with Escherichia coli. In words: Antimicrobial activity against Escherichia coli ATCC 25922.
Experiment [2] relates to Staphylococcus aureus. Description: Antimicrobial activity against vancomycin-susceptible Staphylococcus aureus ATCC 25923.
For experiment [3], the system named is Escherichia coli. Description: Antimicrobial activity against Escherichia coli 50.
Experiment [4] has as its system Escherichia coli. Description: Antimicrobial activity against Escherichia coli 49.
In experiment [5] the test system is Streptococcus pneumoniae. In words: Antimicrobial activity against erythromycin-susceptible Streptococcus pneumoniae ATCC 49619.
In experiment [6] the test system is Staphylococcus aureus. Description: Antimicrobial activity against methicillin-sensitive Staphylococcus aureus ATCC 13709.
In experiment [7] the test system is Streptococcus pneumoniae. In words: Antimicrobial activity against penicillin- and erythromycin-resistant Streptococcus pneumoniae.
The subject of experiment [8] is Enterococcus faecium. Description: Antimicrobial activity against vancomycin-resistant Enterococcus faecium.
Experiment [9] concerns Staphylococcus aureus. In words: Antimicrobial activity against methicillin-resistant Staphylococcus aureus.
Experiment [10] concerns Streptococcus pneumoniae. Description: Antimicrobial activity against penicillin- and erythromycin-resistant Streptococcus pneumoniae in presence of 2.5% horse blood.
For experiment [11], the system named is Enterococcus faecalis. Description: Antimicrobial activity against vancomycin-susceptible Enterococcus faecalis ATCC 29212.
The subject of experiment [12] is Staphylococcus aureus. Description: Antimicrobial activity against Staphylococcus aureus Oxford.
Experiment [13] relates to Haemophilus influenzae. Description: Antimicrobial activity against LS2 Efflux knock-out Haemophilus influenzae.
The subject of experiment [14] is Haemophilus influenzae. Description: Antimicrobial activity against Haemophilus influenzae ATCC 31517 MMSA.
Experiment [15] concerns Pseudomonas aeruginosa. Description: Antimicrobial activity against Pseudomonas aeruginosa ATCC 27853.

In the case of `COC(=O)[C@@]12CO[C@@H](C(C)(C)C)N1C(=O)/C(=C(\C)NC13CC4CC(CC(C4)C1)C3)C2=O`, the MIC in experiment [1] is over 32 µg/mL; in experiment [2], over 64 µg/mL; in experiment [3], over 32 µg/mL; in experiment [4], over 32 µg/mL; in experiment [5], over 64 µg/mL; in experiment [6], over 64 µg/mL. For the same molecule, the MIC in experiment [7], in experiment [8], in [9], in experiment [10], in experiment [11] and in [12] was over 64 µg/mL in each case. Besides, the figures for the MIC in experiment [13], in [14] and in experiment [15] were 16 µg/mL (≈ 37.2 µM), over 64 µg/mL and over 32 µg/mL, respectively.

Consider `CCCC(=O)N1CC(=O)/C(=C(\CC23CC4CC(CC(C4)C2)C3)NCCCN2CCOCC2)C1=O`, for which the MIC in experiment [1] is over 32 µg/mL; in experiment [2], over 64 µg/mL; in experiment [3], over 32 µg/mL; in experiment [4], over 32 µg/mL; in [5] it was 64 µg/mL (≈ 136 µM); in experiment [6], over 64 µg/mL. Moreover, the MIC is 64 µg/mL (≈ 136 µM) in experiment [7]; over 64 µg/mL in experiment [8]; over 64 µg/mL in experiment [9]; 64 µg/mL in [10]; over 64 µg/mL in experiment [11]; over 64 µg/mL in [12]. The MIC in experiment [13] is 16 µg/mL (≈ 33.9 µM); in [14], over 64 µg/mL; in [15], over 32 µg/mL.

Consider `CCCC(=O)N1CC(=O)/C(=C(\CC23CC4CC(CC(C4)C2)C3)NCCCN2CCCCC2C)C1=O` (stereo not given), for which the MIC in experiment [1] was over 32 µg/mL; in experiment [2], 64 µg/mL (≈ 132 µM); in [3], over 32 µg/mL; in experiment [4] it was over 32 µg/mL; in [5], 32 µg/mL (≈ 66.2 µM); in [6] it was 64 µg/mL (≈ 132 µM). For the same molecule, the MIC in experiment [7] turned out to be 32 µg/mL (≈ 66.2 µM); in experiment [8], 64 µg/mL (≈ 132 µM); in [9] it was 64 µg/mL (≈ 132 µM); in experiment [10], 32 µg/mL; in experiment [11], 64 µg/mL (≈ 132 µM); in experiment [12] it was 64 µg/mL (≈ 132 µM). For the same molecule, the results for the MIC in experiment [13], in [14] and in experiment [15] were 32 µg/mL (≈ 66.2 µM), over 64 µg/mL and over 32 µg/mL, respectively.

Regarding `CSCCC1C(=O)/C(=C(\CC23CC4CC(C)(CC(C)(C4)C2)C3)NCC(C)(C)CN(C)C)C(=O)N1C(C)=O` (stereo not given), the MIC is over 32 µg/mL in [1]; over 64 µg/mL in [2]; over 32 µg/mL in experiment [3]; over 32 µg/mL in experiment [4]; over 64 µg/mL in experiment [5]; over 64 µg/mL in [6]. Further, the MIC in experiment [7], in experiment [8], in [9], in experiment [10], in experiment [11] and in experiment [12] was over 64 µg/mL each time. In addition, the MIC is 4 µg/mL (≈ 7.52 µM) in experiment [13], over 64 µg/mL in [14] and over 32 µg/mL in experiment [15].

Consider `CCOC(=O)[C@]12CO[C@H](C(C)(C)C)N1C(=O)/C(=C(/CC13CC4CC(CC(C4)C1)C3)NC(C)CCCN(CC)CC)C2=O` (stereo not given in full), for which the MIC in experiment [1] is over 32 µg/mL; in experiment [2], 64 µg/mL (≈ 109 µM); in experiment [3] it was over 32 µg/mL; in experiment [4] it was over 32 µg/mL; in experiment [5], 32 µg/mL (≈ 54.6 µM); in experiment [6], 32 µg/mL (≈ 54.6 µM). Also, the MIC in experiment [7] stood at 16 µg/mL (≈ 27.3 µM); in experiment [8], 32 µg/mL (≈ 54.6 µM); in experiment [9], 64 µg/mL (≈ 109 µM); in experiment [10], 32 µg/mL; in experiment [11], 32 µg/mL (≈ 54.6 µM); in experiment [12], 32 µg/mL (≈ 54.6 µM). For the same molecule, the MIC in experiment [13] was 16 µg/mL (≈ 27.3 µM); in experiment [14], over 64 µg/mL; in [15], over 32 µg/mL.

Consider `CCOC(=O)[C@]12CO[C@H](C(C)(C)C)N1C(=O)/C(=C(/CC13CC4CC(CC(C4)C1)C3)NCCCN1CCOCC1)C2=O`, for which the MIC was over 32 µg/mL in experiment [1]; over 64 µg/mL in experiment [2]; over 32 µg/mL in [3]; over 32 µg/mL in experiment [4]; over 64 µg/mL in experiment [5]; over 64 µg/mL in [6]. Moreover, the MIC in experiment [7], in experiment [8], in experiment [9], in experiment [10], in experiment [11] and in experiment [12] was over 64 µg/mL each time. In addition, the MIC in experiment [13] was 8 µg/mL (≈ 14 µM); in [14], over 64 µg/mL; in experiment [15], over 32 µg/mL.

On to `CCCCCCCCCN/C(C)=C1/C(=O)N2[C@@H](C(C)(C)C)OC[C@]2(C(=O)OC)C1=O`, for which the MIC in experiment [1], in [2], in experiment [3], in [4], in experiment [5] and in [6] was over 32 µg/mL in each case. The MIC in experiment [7], in experiment [8], in [9], in experiment [10], in experiment [11] and in [12] was over 32 µg/mL each time. Also, the MIC in experiment [13], in experiment [14] and in experiment [15] was over 32 µg/mL throughout.

For the molecule `CCCCOCCCN/C(C)=C1/C(=O)N2[C@@H](C(C)(C)C)OC[C@]2(C(=O)OCC)C1=O`, the MIC in experiment [1], in experiment [2], in experiment [3], in experiment [4], in [5] and in [6] was over 32 µg/mL in each case. The MIC in [7], in [8], in [9], in experiment [10], in experiment [11] and in experiment [12] was over 32 µg/mL in each case. Further, the MIC in experiment [13], in experiment [14] and in [15] was over 32 µg/mL in each case.

Turning to `COC(=O)[C@@]12CO[C@@H](C(C)(C)C)N1C(=O)/C(=C(\C)NCC1CCC3CC1C3(C)C)C2=O` (stereo not given in full), the MIC in experiment [1], in [2], in [3], in [4], in experiment [5] and in experiment [6] was over 32 µg/mL in each case. For the same molecule, the MIC in experiment [7], in experiment [8], in [9], in experiment [10], in experiment [11] and in experiment [12] was over 32 µg/mL throughout. Besides, the MIC in experiment [13], in experiment [14] and in [15] was over 32 µg/mL each time.

Turning to `CCOC(=O)[C@]12CO[C@H](C(C)(C)C)N1C(=O)/C(=C(\C)NCCCN1CCOCC1)C2=O`, the MIC in experiment [1], in experiment [2], in experiment [3], in [4], in experiment [5] and in [6] was over 32 µg/mL in each case. The MIC in [7], in experiment [8], in experiment [9], in [10], in experiment [11] and in experiment [12] was over 32 µg/mL each time. Besides, the MIC in experiment [13], in experiment [14] and in experiment [15] was over 32 µg/mL each time.

Take `CCOC(=O)[C@]12CO[C@H](C(C)(C)C)N1C(=O)/C(=C(\C)NCc1cccc(CN3CCC(C)CC3)c1)C2=O`: the MIC in [1], in [2], in [3], in experiment [4], in experiment [5] and in experiment [6] was over 32 µg/mL each time. For the same molecule, the MIC in experiment [7], in experiment [8], in [9], in experiment [10], in [11] and in experiment [12] was over 32 µg/mL in each case. The MIC in [13], in [14] and in experiment [15] was over 32 µg/mL in each case.

For `CCOC(=O)[C@]12CO[C@H](C(C)(C)C)N1C(=O)/C(=C(\C)NCc1ccc(C)o1)C2=O`, the MIC in experiment [1], in experiment [2], in experiment [3], in experiment [4], in experiment [5] and in experiment [6] was over 32 µg/mL in each case. Besides, the MIC in experiment [7], in experiment [8], in [9], in experiment [10], in experiment [11] and in [12] was over 32 µg/mL in each case. The MIC in experiment [13], in experiment [14] and in experiment [15] was over 32 µg/mL each time.

In the case of `CCOC(=O)[C@]12CO[C@H](C(C)(C)C)N1C(=O)/C(=C(\C)N1CCN(C3CCCCC3)CC1)C2=O`, the MIC in [1], in experiment [2], in [3], in experiment [4], in experiment [5] and in experiment [6] was over 32 µg/mL each time. The MIC in experiment [7], in experiment [8], in experiment [9], in experiment [10], in [11] and in experiment [12] was over 32 µg/mL in each case. For the same molecule, the MIC in experiment [13], in experiment [14] and in experiment [15] was over 32 µg/mL each time.

Turning to `COCCOC(=O)[C@]12CO[C@H](C(C)(C)C)N1C(=O)/C(=C(\C)NCCOc1ccccc1)C2=O`, the MIC in experiment [1], in experiment [2], in [3], in experiment [4], in experiment [5] and in experiment [6] was over 32 µg/mL throughout. Moreover, the MIC in experiment [7], in [8], in experiment [9], in experiment [10], in experiment [11] and in experiment [12] was over 32 µg/mL throughout. Also, the MIC in [13], in experiment [14] and in [15] was over 32 µg/mL in each case.
